Test system: 997726-040-R-J2-PDC tumor spheroids, viability
Assay: Anticancer human tumor 997726-040-R-J2-PDC patient-derived squamous cell lung carcinoma cell line growth inhibition [PI3K]
Conditions: spheroids with HUVEC and MSC; for IC50: curve of first compound; for viability, T/C: stronger effect = lower value; active means viability on the fitted dose curve at most 10% of control; inactive means the rest
Procedure, shortened: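 Stroma-containing spheroids: tumor line, pooled-donor HUVEC, hMSC. Treatments: targeted agents with PI3K inhibitors. Dosing: clinically relevant, half-log spacing, 10 microM ceiling without known Cmax. Read-out: cell viability.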

[1] = second compound 0.0316 µM, first compound 0.0316 µM
[2] = second compound 0.0316 µM, first compound 0.1 µM
[3] = second compound 0.1 µM, first compound 0.0316 µM
[4] = second compound 0.1 µM, first compound 0.1 µM
[5] = second compound 0.316 µM, first compound 0.0316 µM
[6] = second compound 0.316 µM, first compound 0.1 µM
[7] = second compound 1 µM, first compound 0.0316 µM
[8] = second compound 1 µM, first compound 0.1 µM
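Further: spheroids exposed to compounds for seven days before readout.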

Cn1ncnc1[C@H]1c2n[nH]c(=O)c3cc(F)cc(c23)N[C@@H]1c1ccc(F)cc1 + CC(Nc1ncnc2nc[nH]c12)c1cc2cccc(Cl)c2c(=O)n1-c1ccccc1
> 100 nM: IC50 (second compound 0.0316 µM) | IC50 (second compound 0.1 µM) | IC50 (second compound 0.316 µM) | IC50 (second compound 1 µM) | IC50 (second compound 3.16 µM)
inactive: viability, T/C (second compound 0.0316 µM, first compound 0.000316 µM) 101% | viability, T/C (second compound 0.0316 µM, first compound 0.001 µM) 99.9% | viability, T/C (second compound 0.0316 µM, first compound 0.00316 µM) 102% | viability, T/C (second compound 0.0316 µM, first compound 0.01 µM) 112% | viability, T/C [1] 99.7% | viability, T/C [2] 96.8% | viability, T/C (second compound 0.1 µM, first compound 0.000316 µM) 96.5% | viability, T/C (second compound 0.1 µM, first compound 0.001 µM) 99.7% | viability, T/C (second compound 0.1 µM, first compound 0.00316 µM) 94.4% | viability, T/C (second compound 0.1 µM, first compound 0.01 µM) 102% | viability, T/C [3] 98.4% | viability, T/C [4] 97.1% | viability, T/C (second compound 0.316 µM, first compound 0.000316 µM) 93.5% | viability, T/C (second compound 0.316 µM, first compound 0.001 µM) 99.4% | viability, T/C (second compound 0.316 µM, first compound 0.00316 µM) 98% | viability, T/C (second compound 0.316 µM, first compound 0.01 µM) 101% | viability, T/C [5] 97.6% | viability, T/C [6] 99.3% | viability, T/C (second compound 1 µM, first compound 0.000316 µM) 100% | viability, T/C (second compound 1 µM, first compound 0.001 µM) 95.3% | viability, T/C (second compound 1 µM, first compound 0.00316 µM) 90.4% | viability, T/C (second compound 1 µM, first compound 0.01 µM) 86.2% | viability, T/C [7] 86.2% | viability, T/C [8] 89.1% | viability, T/C (second compound 3.16 µM, first compound 0.000316 µM) 70.3% | viability, T/C (second compound 3.16 µM, first compound 0.001 µM) 77.9% | viability, T/C (second compound 3.16 µM, first compound 0.00316 µM) 69.7% | viability, T/C (second compound 3.16 µM, first compound 0.01 µM) 65.5% | viability, T/C (second compound 3.16 µM, first compound 0.0316 µM) 89.9% | viability, T/C (second compound 3.16 µM, first compound 0.1 µM) 67.2% | viability, T/C (second compound 10 µM, first compound 0.000316 µM) 54.8% | viability, T/C (second compound 10 µM, first compound 0.001 µM) 61.6% | viability, T/C (second compound 10 µM, first compound 0.00316 µM) 55.3% | viability, T/C (second compound 10 µM, first compound 0.01 µM) 54% | viability, T/C (second compound 10 µM, first compound 0.0316 µM) 55% | viability, T/C (second compound 10 µM, first compound 0.1 µM) 48.9%
80.4 nM: IC50 (second compound 10 µM)

CC(C)NCC(C(=O)N1CCN(c2ncnc3c2C(C)CC3O)CC1)c1ccc(Cl)cc1 (centres undefined) + CC(Nc1ccc2c(c1)OCCn1cc(N3C(=O)OCC3C(F)F)nc1-2)C(N)=O
< 31.6 nM: IC50 (second compound 0.316 µM) | IC50 (second compound 1 µM)
149 nM: IC50 (second compound 0.0316 µM)
35.8 nM: IC50 (second compound 0.1 µM)
269 nM: IC50 (second compound 0.00316 µM)
inactive: viability, T/C (second compound 0.00316 µM, first compound 0.0316 µM) 77.7% | viability, T/C (second compound 0.00316 µM, first compound 0.1 µM) 68.9% | viability, T/C (second compound 0.00316 µM, first compound 0.316 µM) 45.2% | viability, T/C (second compound 0.00316 µM, first compound 1 µM) 27.8% | viability, T/C (second compound 0.00316 µM, first compound 3.16 µM) 10.2% | viability, T/C (second compound 0.01 µM, first compound 0.0316 µM) 71.5% | viability, T/C (second compound 0.01 µM, first compound 0.1 µM) 65.8% | viability, T/C (second compound 0.01 µM, first compound 0.316 µM) 41.3% | viability, T/C (second compound 0.01 µM, first compound 1 µM) 30.3% | viability, T/C (second compound 0.01 µM, first compound 3.16 µM) 10.5% | viability, T/C [1] 53.3% | viability, T/C [2] 57.7% | viability, T/C (second compound 0.0316 µM, first compound 0.316 µM) 41.3% | viability, T/C (second compound 0.0316 µM, first compound 1 µM) 26.6% | viability, T/C (second compound 0.0316 µM, first compound 3.16 µM) 12.4% | viability, T/C [3] 52.1% | viability, T/C [4] 37.7% | viability, T/C (second compound 0.1 µM, first compound 0.316 µM) 31.4% | viability, T/C (second compound 0.1 µM, first compound 1 µM) 22.4% | viability, T/C (second compound 0.1 µM, first compound 3.16 µM) 11.2% | viability, T/C [5] 34.7% | viability, T/C [6] 28.8% | viability, T/C (second compound 0.316 µM, first compound 0.316 µM) 24.6% | viability, T/C (second compound 0.316 µM, first compound 1 µM) 20.6% | viability, T/C (second compound 0.316 µM, first compound 3.16 µM) 10.6% | viability, T/C [7] 26.2% | viability, T/C [8] 23.6% | viability, T/C (second compound 1 µM, first compound 0.316 µM) 23.4% | viability, T/C (second compound 1 µM, first compound 1 µM) 16.5% | viability, T/C (second compound 1 µM, first compound 3.16 µM) 8.21%
233 nM: IC50 (second compound 0.01 µM)
active: viability, T/C (second compound 0.00316 µM, first compound 10 µM) 9.8% | viability, T/C (second compound 0.01 µM, first compound 10 µM) 7.89% | viability, T/C (second compound 0.0316 µM, first compound 10 µM) 8.75% | viability, T/C (second compound 0.1 µM, first compound 10 µM) 6.81% | viability, T/C (second compound 0.316 µM, first compound 10 µM) 5.02% | viability, T/C (second compound 1 µM, first compound 10 µM) 5.34%

Reference: PubChem BioAssay AID1963964 (Molecular Pharmacology Branch, DTP, NCI, 2024)
